Source: patent US8895037B2, “Administation of ellagic acid for the treatment of canities” (L'Oreal, priority 2006, dated 2014)

Legend:
[1] = system: normal human melanocytes (NHMs); assay: Accelerated senescence induced in vitro by a chronic H2O2 stress, viability by Alamar Blue; type: cell-based; conditions: for % relative to the control / average fluorescence: Alamar Blue on D7
Experimental: 1-C-1. Protocol for accelerated senescence induced in vitro by a chronic H2O2 stress:
(According to O. Toussaint, E. E. Medrano and T. von Zglinicki, Experimental Gerontology 2000, 35, 927-945).
The normal human melanocytes (NHMs) were inoculated at D0 at the density of 0.8×10^4 cells/cm^2. After adhesion of the cells (3 h) the active agent studied was added to the culture medium. H2O2 (250 μM) was added to the culture medium over 1 hour, at D1, D2 and D3. In addition, the culture medium was renewed every two days without addition of stress. On D7, the number of viable cells was measured using Alamar Blue (UP669413 UPTIMA, Interchim) according to the instructions of the supplier.

[2] = system: normal human melanocytes (NHMs); assay: Reactive oxygen species (ROS) generated by an H2O2 stress in cultured normal human melanocytes; type: cell-based; conditions: NHM pretreated 12 h/18 h, 250 μM H2O2, fluorescence after 15 min; FIG. 1
Experimental: 1-A-1. Protocol for measuring the reactive oxygen species (ROS) generated by an H2O2 stress in cultured normal human melanocytes (NHMs) The normal human melanocytes (NHMs) were inoculated at D0 at the density of 4×10^4 cells/cm^2. At D1, the culture medium was replaced with the 10 μM solution of 6-carboxy-2',7'-dichlorodihydrofluorescein diacetate, di[acetoxymethyl ester] in PBS (H2DCFDA, C2938, Molecular Probes). After 20 min the H2DCFDA solution was replaced with the culture medium. The NHMs were left for 30 min before adding the H2O2 solution (250 μM). The fluorescence was measured after 15 min in a fluoroscan (excitation: 485 nm, emission: 538 nm). The compounds studied were used depending on their properties (concentration, preincubation time). N-Acetylcysteine ([…], Sigma) was used as a reference molecule. The melanocytes were pretreated, 12 h/18 h at 37° C., with the compound studied in the culture medium, before being brought into contact for 20 minutes with H2DCFDA (10 μM in PBS). […] The fluorescence was measured after 15 min in a fluoroscan (excitation: 485 nm, emission: 538 nm). The results represent the crude fluorescence data, from which the autofluorescence values of “blank” cells, expressed in fluorescence units (fu), obtained during a representative experiment, have been deducted.

[3] = (no treatment, NAC, EA), chronic H2O2 250 μM at D1, D2, D3

| SMILES | % relative to the control ([1]; (Control, NAC, EA)) [%] | average fluorescence ([1]; (Control, NAC, EA)) | % relative to the control [1, 3] [%] | average fluorescence [1, 3] | reactive oxygen species induced by H2O2 (fluorescence, H2DCFDA) [2] | viability after accelerated senescence induced by chronic H2O2 stress ([1]; NHM, H2O2 250 μM at D1, D2, D3, read on D7, FIG. 3) |
| --- | --- | --- | --- | --- | --- | --- |
| CC(=O)N[C@@H](CS)C(=O)O [NAC, N-Acetylcysteine, reference compound] | 106 | 8056.00 | 38 | 2869.00 |  |  |
| O=c1oc2c(O)c(O)cc3c(=O)oc4c(O)c(O)cc1c4c23 [ellagic acid, 2,3,7,8-tetrahydroxy(1)benzopyrano(5,4,3-CDE)(1)benzopyran-5,10-dione] | 97 | 7343.67 | 39 | 2934.00 | decrease of the reactive oxygen species | significant increase in viability |
